Here are results for one compound from ChEMBL document CHEMBL2331224 (J Med Chem, 2013).

Calls of active or inactive are those of the source. The calls are words filed in the database; no cut-off is given here.

This test concerns the target T1, Retinoic acid receptor RXR-alpha (Mus musculus) (UniProt P28700).
T1 sequence (whole entry): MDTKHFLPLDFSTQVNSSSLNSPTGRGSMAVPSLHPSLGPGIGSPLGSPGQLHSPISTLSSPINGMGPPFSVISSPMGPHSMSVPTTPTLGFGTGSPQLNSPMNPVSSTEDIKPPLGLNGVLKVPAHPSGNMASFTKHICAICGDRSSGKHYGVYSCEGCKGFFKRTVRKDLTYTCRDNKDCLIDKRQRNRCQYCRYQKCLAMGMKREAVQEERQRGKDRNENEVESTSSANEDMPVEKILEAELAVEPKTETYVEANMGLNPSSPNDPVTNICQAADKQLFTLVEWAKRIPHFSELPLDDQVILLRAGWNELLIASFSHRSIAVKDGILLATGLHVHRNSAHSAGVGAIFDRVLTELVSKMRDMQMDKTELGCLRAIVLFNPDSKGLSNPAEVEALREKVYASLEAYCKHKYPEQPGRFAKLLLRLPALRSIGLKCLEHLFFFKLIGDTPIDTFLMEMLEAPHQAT
Briefly: Partial agonist activity at mouse RXRalpha expressed in COS1 cells by luciferase reporter gene assay relative to bexarotene. The test is classed as cell-based. Conditions: COS-1.

Take `Cc1cc2c(cc1-n1c(C(F)(F)F)nc3cc(C(=O)O)ccc31)C(C)(C)CCC2(C)C`: the outcome was Active.
